# Measurements from ChEMBL document CHEMBL1795293, “Novel pentamidine derivatives: synthesis, anti-tumor properties and polynucleotide-binding activities” (Eur J Med Chem, 2011).
# Active and inactive are the calls of the source. No cut-off for these calls is given here.
# Legend:
# MCF7 = assay: Cytotoxicity against human MCF7 cells after 72 hrs by MTT assay; assay type: functional, cell-based; conditions: MCF7, 72 h
# SW-620 = assay: Cytotoxicity against human SW620 cells after 72 hrs by MTT assay; assay type: functional, cell-based; conditions: SW-620, 72 h
# MIA PaCa-2 = assay: Cytotoxicity against human MIAPaCa2 cells after 72 hrs by MTT assay; assay type: functional, cell-based; conditions: MIA PaCa-2, 72 h
# HeLa = assay: Cytotoxicity against human HeLa cells after 72 hrs by MTT assay; assay type: functional, cell-based
# HEp-2 = assay: Cytotoxicity against human Hep2 cells after 72 hrs by MTT assay; assay type: functional, cell-based; conditions: HEp-2, 72 h
# NCI-H460 = assay: Cytotoxicity against human H460 cells after 72 hrs by MTT assay; assay type: functional, cell-based; conditions: NCI-H460, 72 h
# HCT-116 = assay: Cytotoxicity against human HCT116 cells after 72 hrs by MTT assay; assay type: functional, cell-based; conditions: HCT-116, 72 h
# MOLT-4 = assay: Cytotoxicity against human MOLT4 cells after 72 hrs by MTT assay; assay type: functional, cell-based; conditions: MOLT-4, 72 h
# Nucleic Acid [1] = assay: Binding affinity to Poly A-Poly U RNA measured at 300 to 330 nm wavelength at < 0.3 compound to polynucleotide ratio by circular dichroism spectroscopy; assay type: nucleic-acid assay
# Nucleic Acid [2] = assay: Binding affinity to Poly dA-Poly dT DNA assessed as ratio of ethidium bromide /compound at which 50% of ethidium bromide fluorescence is quenched by displacement assay; assay type: nucleic-acid assay
# Nucleic Acid [3] = assay: Binding affinity to Poly G-Poly C RNA assessed as ratio of ethidium bromide /compound at which 50% of ethidium bromide fluorescence is quenched by displacement assay; assay type: nucleic-acid assay
# Nucleic Acid [4] = assay: Binding affinity to Poly A-Poly U RNA assessed as ratio of ethidium bromide /compound at which 50% of ethidium bromide fluorescence is quenched by displacement assay; assay type: nucleic-acid assay
# Nucleic Acid [5] = assay: Binding affinity to calf thymus DNA assessed as ratio of ethidium bromide /compound at which 50% of ethidium bromide fluorescence is quenched by displacement assay; assay type: nucleic-acid assay, Bos taurus
# Nucleic Acid [6] = assay: Binding affinity to Poly dA-Poly dT DNA assessed as change in melting temperature at 0.5 compound to polynucleotide ratio by UV-VIS spectral study; assay type: nucleic-acid assay
# Nucleic Acid [7] = assay: Binding affinity to Poly dA-Poly dT DNA assessed as change in melting temperature at 0.3 compound to polynucleotide ratio by UV-VIS spectral study; assay type: nucleic-acid assay
# Nucleic Acid [8] = assay: Binding affinity to Poly A-Poly U RNA assessed as change in melting temperature at 0.5 compound to polynucleotide ratio by UV-VIS spectral study; assay type: nucleic-acid assay
# Nucleic Acid [9] = assay: Binding affinity to Poly A-Poly U RNA assessed as change in melting temperature at 0.3 compound to polynucleotide ratio by UV-VIS spectral study; assay type: nucleic-acid assay
# Nucleic Acid [10] = assay: Binding affinity to calf thymus DNA assessed as change in melting temperature at 0.5 compound to polynucleotide ratio by UV-VIS spectral study; assay type: nucleic-acid assay; conditions: Bos taurus
# Nucleic Acid [11] = assay: Binding affinity to calf thymus DNA assessed as change in melting temperature at 0.3 ratio compound/polynucleotide by UV-VIS spectral study; assay type: nucleic-acid assay; conditions: Bos taurus
# Nucleic Acid [12] = assay: Stabilization of double helix calf thymus DNA by spectroscopy; assay type: nucleic-acid assay; conditions: Bos taurus
# Nucleic Acid [13] = assay: Binding affinity to Poly A-Poly U RNA measured at 303 nm wavelength at < 0.3 compound to polynucleotide ratio by circular dichroism spectroscopy; assay type: nucleic-acid assay
# Nucleic Acid [14] = assay: Binding affinity to Poly A-Poly U RNA measured at 299 nm wavelength at < 0.3 compound to polynucleotide ratio by circular dichroism spectroscopy; assay type: nucleic-acid assay
# Nucleic Acid [15] = assay: Binding affinity to Poly G-Poly C RNA at 0.7 compound to polynucleotide ratio by circular dichroism spectroscopy; assay type: nucleic-acid assay
# Nucleic Acid [16] = assay: Binding affinity to Poly G-Poly C RNA at 0.5 compound to polynucleotide ratio by circular dichroism spectroscopy; assay type: nucleic-acid assay
# Nucleic Acid [17] = assay: Binding affinity to Poly G-Poly C RNA at 0.2-0.3 compound to polynucleotide ratio by circular dichroism spectroscopy; assay type: nucleic-acid assay
# Nucleic Acid [18] = assay: Binding affinity to Poly G-Poly C RNA at 0.1 compound to polynucleotide ratio by circular dichroism spectroscopy; assay type: nucleic-acid assay
# Nucleic Acid [19] = assay: Binding affinity to Poly G-Poly C RNA at < 0.3 compound to polynucleotide ratio by circular dichroism spectroscopy; assay type: nucleic-acid assay
# Nucleic Acid [20] = assay: Binding affinity to Poly A-Poly U RNA measured at 326 nm wavelength at 0.7 compound to polynucleotide ratio by circular dichroism spectroscopy; assay type: nucleic-acid assay
# Nucleic Acid [21] = assay: Binding affinity to Poly A-Poly U RNA at 0.5 compound to polynucleotide ratio by circular dichroism spectroscopy; assay type: nucleic-acid assay
# Nucleic Acid [22] = assay: Binding affinity to Poly A-Poly U RNA measured at 290 nm wavelength at 0.1 compound to polynucleotide ratio by circular dichroism spectroscopy; assay type: nucleic-acid assay
# Nucleic Acid [23] = assay: Binding affinity to double strand Poly dA-Poly dT DNA measured at 300 to 330 nm wavelength at > 0.5 compound to polynucleotide ratio by circular dichroism spectroscopy; assay type: nucleic-acid assay
# Nucleic Acid [24] = assay: Binding affinity to double strand calf thymus DNA measured at 300 to 330 nm wavelength at > 0.5 compound to polynucleotide ratio by circular dichroism spectroscopy; assay type: nucleic-acid assay; conditions: Bos taurus
# Nucleic Acid [25] = assay: Binding affinity to double strand Poly dA-Poly dT DNA measured at 300 to 330 nm wavelength at 0.3 compound to polynucleotide ratio by circular dichroism spectroscopy; assay type: nucleic-acid assay
# Nucleic Acid [26] = assay: Binding affinity to double strand calf thymus DNA measured at 300 to 330 nm wavelength at 0.3 compound to polynucleotide ratio by circular dichroism spectroscopy; assay type: nucleic-acid assay; conditions: Bos taurus
# Nucleic Acid [27] = assay: Binding affinity to double strand Poly dA-Poly dT DNA measured at 300 to 330 nm wavelength at 0.1 compound to polynucleotide ratio by circular dichroism spectroscopy; assay type: nucleic-acid assay
# Nucleic Acid [28] = assay: Binding affinity to double strand calf thymus DNA measured at 300 to 330 nm wavelength at 0.1 compound to polynucleotide ratio by circular dichroism spectroscopy; assay type: nucleic-acid assay; conditions: Bos taurus
# Nucleic Acid [29] = assay: Binding affinity to calf thymus DNA by UV-VIS spectral study; assay type: nucleic-acid assay; conditions: Bos taurus
SMILES,IC50 (MCF7) [µM],IC50 (SW-620) [µM],IC50 (MIA PaCa-2) [µM],IC50 (HeLa) [µM],IC50 (HEp-2) [µM],IC50 (NCI-H460) [µM],IC50 (HCT-116) [µM],IC50 (MOLT-4) [µM],Activity (Nucleic Acid [1]),IC50 (Nucleic Acid [2]) [molar ratio],IC50 (Nucleic Acid [3]) [molar ratio],IC50 (Nucleic Acid [4]) [molar ratio],IC50 (Nucleic Acid [5]) [molar ratio],ΔTm (Nucleic Acid [6]) [°C],ΔTm (Nucleic Acid [7]) [°C],ΔTm (Nucleic Acid [8]) [°C],ΔTm (Nucleic Acid [9]) [°C],ΔTm (Nucleic Acid [10]) [°C],ΔTm (Nucleic Acid [11]) [°C],also measured
N#Cc1ccc(NC(=O)c2ccco2)cc1,32,> 100,> 100,47,> 100,,,,,,,,,,,,,,,
CC(C)NC(=N)c1ccc(NC(=O)c2cccc(C(=O)Nc3ccc(C(=N)NC(C)C)cc3)n2)cc1.Cl.Cl,32,> 100,> 100,53,30,> 100,> 100,> 100,Active,1.37,0.1,0.17,0.15,25.5,24.1,3.7,3.1,10.3,8.5,
CC(C)NC(=N)c1ccc(NC(=O)c2ccco2)cc1,> 100,> 100,> 100,60,> 100,,,,,,,,,,,,,,,Activity (Nucleic Acid [12]): inactive
Cl.Cl.N=C(N)c1ccc(NC(=O)c2cccc(C(=O)Nc3ccc(C(=N)N)cc3)n2)cc1,> 100,> 100,13,18,47,19,> 100,> 100,Active,1.6,0.25,0.47,0.3,,20.4,,1,,6.7,Activity (Nucleic Acid [13]): Active
Cl.Cl.N=C(N)c1ccc(C(=O)Nc2cccc(NC(=O)c3ccc(C(=N)N)cc3)n2)cc1,12,> 100,13,19,21,17,67,> 100,Active,1.7,0.07,0.5,0.19,30.9,29.3,18.7,1,15,13.5,Activity (Nucleic Acid [14]): inactive
CC(C)NC(=N)c1ccc(NC(=O)c2ccc(C(=O)Nc3ccc(C(=N)NC(C)C)cc3)o2)cc1.Cl.Cl,4,4,79,50,5,,,,Active,2.23,0.2,0.03,0.36,31.7,29.5,20.1,4.5,6.6,5.6,Activity (Nucleic Acid [15]): Active; Activity (Nucleic Acid [16]): Active; Activity (Nucleic Acid [17]): Active; Activity (Nucleic Acid [18]): Active; Activity (Nucleic Acid [19]): Active; Activity (Nucleic Acid [20]): Active; Activity (Nucleic Acid [21]): Active; Activity (Nucleic Acid [22]): Active; Activity (Nucleic Acid [23]): Active; Activity (Nucleic Acid [24]): Active; Activity (Nucleic Acid [25]): inactive; Activity (Nucleic Acid [26]): inactive; Activity (Nucleic Acid [27]): Active; Activity (Nucleic Acid [28]): Active; Ks (Nucleic Acid [29]): 6.3 ×10⁴ /M
CC(C)NC(=N)c1ccc(C(=O)Nc2cccc(NC(=O)c3ccc(C(=N)NC(C)C)cc3)n2)cc1.Cl.Cl,24,> 100,> 100,56,38,> 100,> 100,> 100,Active,2,0.07,0.07,0.13,32.2,30.5,5.7,3.7,14.5,13.1,Activity (Nucleic Acid [14]): Active
N=C(N)c1ccc(NC(=O)c2ccco2)cc1,33,> 100,> 100,> 100,> 100,,,,,,,,,,,,,,,Activity (Nucleic Acid [12]): inactive
Cl.Cl.N=C(N)c1ccc(NC(=O)c2ccc(C(=O)Nc3ccc(C(=N)N)cc3)o2)cc1,5,> 100,53,> 100,11,,,,,2.1,0.36,1,0.8,,30.2,,1.6,,7.5,
N#Cc1ccc(NC(=O)c2ccc(C(=O)Nc3ccc(C#N)cc3)o2)cc1,> 100,> 100,> 100,> 100,> 100,,,,,,,,,,,,,,,
